Source: PubChem BioAssay (NCI)
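These data come from cells grown in 96-well plates and exposed to compound for 48 hours at five concentrations. Definition used: TGI = concentration required for complete inhibition of growth.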

Key:
Assay in all cases: inhibition of tumour cell growth, NCI panel, 48 h
[1] = system: A549 NSCLC
[2] = system: IGROV1 ovarian
[3] = system: EKVX NSCLC
[4] = system: MALME-3M melanoma
[5] = system: SF-539 CNS
[6] = system: COLO 205 colon
[7] = system: HT29 colon
[8] = system: MOLT-4 leukemia
[9] = system: UO-31 renal
[10] = system: PC-3 prostate
[11] = system: SR leukemia
[12] = system: ACHN renal
[13] = system: K-562 leukemia
[14] = system: SK-MEL-28 melanoma
[15] = system: HOP-92 NSCLC
[16] = system: HL-60(TB) leukemia
[17] = system: HCC-2998 colon
[18] = system: NCI-H23 lung
[19] = system: M14 melanoma
[20] = system: SN12C renal
[21] = system: RPMI-8226 leukemia
[22] = system: DU-145 prostate
[23] = system: MDA-MB-435
[24] = system: NCI-H226 lung
[25] = system: 786-0 renal
[26] = system: NCI-H460 lung
[27] = system: MDA-N
[28] = system: MCF7 breast
[29] = system: UACC-62 melanoma
[30] = system: SF-295 CNS
[31] = system: OVCAR-5 ovarian
[32] = system: MDA-MB-231 breast
[33] = system: NCI-H522 lung
[34] = system: T-47D breast
[35] = system: HOP-62 NSCLC
[36] = system: HCT-116 colon
[37] = system: CAKI-1 renal
[38] = system: SK-MEL-5 melanoma
[39] = system: UACC-257 melanoma
[40] = system: OVCAR-4 ovarian
[41] = system: SF-268 CNS
[42] = system: SK-MEL-2 melanoma
[43] = system: HS 578T breast
[44] = system: CCRF-CEM leukemia
[45] = system: NCI/ADR-RES ovarian
[46] = system: SNB-75 CNS
[47] = system: OVCAR-8 ovarian
[48] = system: SW-620 colon
[49] = system: OVCAR-3 ovarian
[50] = system: HCT-15 colon
[51] = system: LOX IMVI melanoma
[52] = system: SNB-19 CNS
[53] = system: SK-OV-3 ovarian
[54] = system: A498 renal
[55] = system: BT-549 breast
[56] = system: KM12 colon
[57] = system: U251 CNS
[58] = system: TK-10 renal
[59] = system: RXF 393 renal

CC(O)C1(CNc2cc(Cl)nc(N)n2)CCCC1 (stereo unspecified)
TGI [1]: > 100 µM | TGI [2]: > 100 µM | TGI [3]: > 100 µM | TGI [4]: > 100 µM | TGI [5]: > 100 µM | TGI [6]: > 100 µM | TGI [7]: > 100 µM | TGI [8]: > 100 µM | TGI [9]: > 100 µM | TGI [10]: > 100 µM | TGI [11]: > 100 µM | TGI [12]: > 100 µM | TGI [13]: > 100 µM | TGI [14]: > 100 µM | TGI [15]: > 100 µM | TGI [16]: > 100 µM | TGI [17]: > 100 µM | TGI [18]: > 100 µM | TGI [19]: > 100 µM | TGI [20]: > 100 µM | TGI [21]: > 100 µM | TGI [22]: > 100 µM | TGI [23]: > 100 µM | TGI [24]: > 100 µM | TGI [25]: > 100 µM | TGI [26]: > 100 µM | TGI [27]: > 100 µM | TGI [28]: > 100 µM | TGI [29]: > 100 µM | TGI [30]: > 100 µM | TGI [31]: > 100 µM | TGI [32]: > 100 µM | TGI [33]: > 100 µM | TGI [34]: > 100 µM | TGI [35]: > 100 µM | TGI [36]: > 100 µM | TGI [37]: > 100 µM | TGI [38]: > 100 µM | TGI [39]: > 100 µM | TGI [40]: > 100 µM | TGI [41]: > 100 µM | TGI [42]: > 100 µM | TGI [43]: > 100 µM | TGI [44]: > 100 µM | TGI [45]: > 100 µM | TGI [46]: > 100 µM | TGI [47]: > 100 µM | TGI [48]: > 100 µM | TGI [49]: > 100 µM | TGI [50]: > 100 µM | TGI [51]: > 100 µM | TGI [52]: > 100 µM | TGI [53]: > 100 µM | TGI [54]: > 100 µM | TGI [55]: > 100 µM | TGI [56]: > 100 µM | TGI [57]: > 100 µM | TGI [58]: > 100 µM | TGI [59]: > 100 µM

C=C(CC[C@@H](C)[C@H]1CC[C@H]2[C@@H]3C[C@@H](O)[C@H]4C[C@@H](O)CC[C@]4(CO)[C@H]3CC[C@]12C)C(C)C
TGI [1]: 11.1 µM | TGI [2]: 12.6 µM | TGI [3]: 4.34 µM | TGI [4]: 12.8 µM | TGI [5]: 20.6 µM | TGI [6]: 15.8 µM | TGI [7]: 7.91 µM | TGI [8]: 10.8 µM | TGI [9]: 11.1 µM | TGI [10]: 10.8 µM | TGI [11]: 9.77 µM | TGI [12]: 12 µM | TGI [13]: 6.92 µM | TGI [14]: 10.3 µM | TGI [15]: 15.5 µM | TGI [16]: 14.9 µM | TGI [17]: 6.33 µM | TGI [18]: 12 µM | TGI [19]: 14.7 µM | TGI [20]: 12.6 µM | TGI [21]: 11.6 µM | TGI [22]: 10 µM | TGI [23]: 14.2 µM | TGI [24]: 18.4 µM | TGI [25]: 11.1 µM | TGI [26]: 7.14 µM | TGI [27]: 15.6 µM | TGI [28]: 9.53 µM | TGI [29]: 15 µM | TGI [30]: 17.1 µM | TGI [31]: 13.3 µM | TGI [32]: 10.4 µM | TGI [33]: 11.1 µM | TGI [34]: 8.47 µM | TGI [35]: 14.8 µM | TGI [36]: 8.91 µM | TGI [37]: 11.8 µM | TGI [38]: 15.9 µM | TGI [39]: 14.8 µM | TGI [40]: 13.4 µM | TGI [41]: 12.6 µM | TGI [42]: 13.9 µM | TGI [43]: 12.4 µM | TGI [44]: 10.5 µM | TGI [45]: 12.2 µM | TGI [46]: 15.1 µM | TGI [47]: 12.5 µM | TGI [48]: 16.5 µM | TGI [49]: 8.77 µM | TGI [50]: 8.27 µM | TGI [51]: 9 µM | TGI [52]: 15.3 µM | TGI [53]: 16.3 µM | TGI [54]: 13.3 µM | TGI [55]: 15 µM | TGI [56]: 8.01 µM | TGI [57]: 13 µM | TGI [58]: 5.47 µM | TGI [59]: 8.42 µM

O=P(Nc1ccccc1)(Oc1ccccc1)N1CCN(c2ccccc2)CC1 (stereo unspecified)
TGI [1]: 38.5 µM | TGI [2]: 40.4 µM | TGI [3]: 51.1 µM | TGI [4]: 33.4 µM | TGI [5]: 33.9 µM | TGI [6]: 34.9 µM | TGI [7]: 29.3 µM | TGI [8]: 52.6 µM | TGI [9]: 31 µM | TGI [10]: 51.7 µM | TGI [11]: > 100 µM | TGI [12]: 53.9 µM | TGI [13]: > 100 µM | TGI [14]: 35.2 µM | TGI [15]: 33.9 µM | TGI [16]: > 100 µM | TGI [17]: 29.9 µM | TGI [18]: 36.9 µM | TGI [19]: 28.6 µM | TGI [20]: 36 µM | TGI [21]: > 100 µM | TGI [22]: 49.4 µM | TGI [23]: 51.5 µM | TGI [24]: 43.9 µM | TGI [25]: 53.6 µM | TGI [26]: 33.3 µM | TGI [27]: 31.6 µM | TGI [28]: 32.1 µM | TGI [29]: 25.8 µM | TGI [30]: 33.6 µM | TGI [31]: 33.5 µM | TGI [32]: 28.9 µM | TGI [33]: 19.7 µM | TGI [34]: 58.5 µM | TGI [35]: 32.3 µM | TGI [36]: 32.8 µM | TGI [37]: 58.3 µM | TGI [38]: 33.5 µM | TGI [39]: 36.7 µM | TGI [40]: 62.5 µM | TGI [41]: 84.1 µM | TGI [42]: 35.7 µM | TGI [43]: 40.5 µM | TGI [44]: > 100 µM | TGI [45]: 39 µM | TGI [46]: 30.4 µM | TGI [47]: 49.8 µM | TGI [48]: 63.6 µM | TGI [49]: 39.7 µM | TGI [50]: 35 µM | TGI [51]: 33.5 µM | TGI [52]: 32.1 µM | TGI [53]: 33.3 µM | TGI [54]: 35.6 µM | TGI [55]: 29.5 µM | TGI [56]: 33.5 µM | TGI [57]: 30.8 µM | TGI [58]: 52.2 µM | TGI [59]: 33.9 µM

Cc1ccc(N=Nc2c(O)c(S(=O)(=O)O)cc3cc(S(=O)(=O)O)ccc23)c(C)c1
TGI [1]: > 100 µM | TGI [2]: > 100 µM | TGI [3]: > 100 µM | TGI [4]: > 100 µM | TGI [5]: > 100 µM | TGI [6]: > 100 µM | TGI [7]: > 100 µM | TGI [8]: > 100 µM | TGI [9]: > 100 µM | TGI [10]: > 100 µM | TGI [11]: > 100 µM | TGI [12]: > 100 µM | TGI [13]: > 100 µM | TGI [14]: > 100 µM | TGI [15]: > 100 µM | TGI [16]: > 100 µM | TGI [17]: > 100 µM | TGI [18]: > 100 µM | TGI [19]: > 100 µM | TGI [20]: > 100 µM | TGI [21]: > 100 µM | TGI [22]: > 100 µM | TGI [23]: > 100 µM | TGI [24]: > 100 µM | TGI [25]: > 100 µM | TGI [26]: > 100 µM | TGI [27]: > 100 µM | TGI [28]: > 100 µM | TGI [29]: > 100 µM | TGI [30]: > 100 µM | TGI [31]: > 100 µM | TGI [32]: > 100 µM | TGI [33]: > 100 µM | TGI [34]: > 100 µM | TGI [35]: > 100 µM | TGI [36]: > 100 µM | TGI [37]: > 100 µM | TGI [38]: > 100 µM | TGI [39]: > 100 µM | TGI [40]: > 100 µM | TGI [41]: > 100 µM | TGI [42]: > 100 µM | TGI [43]: > 100 µM | TGI [44]: > 100 µM | TGI [45]: > 100 µM | TGI [46]: > 100 µM | TGI [47]: > 100 µM | TGI [48]: > 100 µM | TGI [49]: > 100 µM | TGI [50]: > 100 µM | TGI [51]: > 100 µM | TGI [52]: > 100 µM | TGI [53]: > 100 µM | TGI [54]: > 100 µM | TGI [55]: > 100 µM | TGI [56]: > 100 µM | TGI [57]: > 100 µM | TGI [58]: > 100 µM | TGI [59]: > 100 µM
